Structures can show the parent of a compound that is named as a salt.
How the values were obtained:
[1] = system: Human skin fibroblasts (Hs68); assay: PDGF-induced proliferation in Hs68 cells (3H-thymidine uptake); assay type: cell-based; details: PDGF-BB 5 ng/ml, 24 hours; for inhibition at 3 µM: Concentration 3x10^-6 M; for inhibition at 1 µM: Concentration 1x10^-6 M; for inhibition at 0.3 µM: Concentration 3x10^-7 M
Procedure: Experiments of PDGF-induced proliferation in Hs68 cells Method: Human skin fibroblasts (Hs68, Institute for Fermentation, Osaka) were seeded in 48-well plates precoated with collagen type I (Falcon) (25000 cells/well), and cultured for one day. Then, the cells were cultured in Dulbecco's modified Eagle's medium (high glucose) containing 0.1% bovine serum albumin for 48 hours. Fifteen (15) minutes after the addition of the drug, the cells were stimulated with 5 ng/ml of PDGF-BB (Becton Dickinson Labware) containing ^3H-thymidine (final concentration 0.4 mCi/ml) (Amersham). After 24 hours, the reaction was stopped with 7.5% trichloroacetic acid at 4°C and the plate was allowed to stand at 4°C for 30 minutes. The cells were washed with Ca^2+- and Mg^2+-free phosphate-buffered saline (PBS), after then 0.1% sodium dodecyl sulfate (SDS)/0.4N NaOH was added and the plate was allowed to stand at 37°C for 1 hour to lyze the cells. The whole content of each well was taken in a vial and neutralized with 1N HCl, and then toluene scintillator (Wako Pure Chemical Ind.) was added to each vial. After stirring, the amount of ^3H-thymidine incorporated in the cells was determined with a liquid scintillation counter. The cellular uptake of ^3H-thymidine was used as an indicator of cell proliferation. The effect of the drug on the PDGF-BB (5 ng/ml) uptake of ^3H-thymidine was expressed as % inhibition. […]

[2] = system: Glomerular mesangial cells; assay: Inhibition of the proliferation of mesangial cells (PDGF-BB stimulated, 3H-thymidine uptake); assay type: cell-based, Sprague-Dawley rats; details: Rattus norvegicus, Glomerular mesangial cell, 24 h, PDGF-BB 5 ng/ml, read-out: Proliferation inhibiting activity (% Inhibition); for inhibition at 1 µM: Dose 10^-6 M; for inhibition at 3 µM: Dose 3 x 10^-6 M
Procedure: Glomerular mesangial cells isolated from 4-week-old male Sprague-Dawley rats (Japan Clea) were cultured in a 24-well plate (Falcon) up to the subconfluence. The cells were subsequently cultured in Dulbecco's modified Eagle MEM containing 0.2% bovine serum albumin for 24 - 48 hours before addition of a drug substance. Fifteen minutes after the drug substance was added to the culture, the cells were allowed to react with 5 ng/ml of PDGF-BB (Becton Dickinson Labwere) for stimulation, simultaneously adding ^3H-Thymidine (final concentration 0.2 µ Ci/ml) (Amasham), for 24 hours. The reaction was blocked by adding 7.5 % TCA of 4°C. The mixture was allowed to stand at 4°C for 30 minutes. The cells were washed with phosphate buffered saline containing no Ca^2+ and Mg^2+. A 0.4N NaOH/0.1% sodium dodecyl sulfate (SDS) solution was added to the washed cells and the mixture was allowed to stand at 37°C for an hour to solubilize the cells. The whole qauntity was placed in a vial and neutralized with 1N HCl. Scintillator A (Wako Pure Chemicals) was added to this with stirring. The quantity of ^3H-Thymidine incorporated in the cells was measured by the liquid scintillation counter. The increase in the quantity of the incorporated ^3H-Thymidine was designated as the parameter of the cell proliferation. The inhibitory effect of a drug substance on the intake with PDGF-BB (5 ng/ml) was expressed as % inhibition (Table 1).

SHC rats = assay: Urinary protein excretion in SHC rats; assay type: in vivo, Spontaneously hypercholesterolemic rats; details: 1 mg/kg/day oral once daily
Source text: Experiments of urinary protein excretion in SHC rats Method: Spontaneously hypercholesterolemic rats (male, 7 weeks old) were given a drug suspended in 0.5% methylcellulose (100 cP) by oral administration once daily for 6 weeks. A control group was given 0.5% methylcellulose (100 cP) by the same route once daily. As a normal control group, Sprague-Dawley rats (SD rats) (male, 7 weeks old, CLEA Japan, Inc.) were given 0.5% methylcellulose (100 cP) orally once daily. Before the start of medication and at 2-weeks intervals after the first administration of drugs, urine was collected for twenty four hours and the total protein and albumin excreted in the urine were determined. The assay of total protein and albumin was carried out using the A/GB Test Wako (Wako Pure Chemical Ind.).

[3] = duration of administration 0 weeks (before start of medication)
[4] = duration of administration 2 weeks
[5] = duration of administration 4 weeks
[6] = duration of administration 6 weeks

Compound Cc1nc2cccc3n(C[C@H]4CC[C@H](CNC(=O)C(F)(F)F)CC4)c(=O)c1n23 [Example 29, 1,2-Dihydro-3-methyl-1-[trans-4-(trifluoroacetylamino)methyl-1-cyclohexylmethyl]-1,4,7b-triazacyclopent[cd]inden-2-one] has an inhibition at 3 µM [1] of 76.1%.
For Cc1nc2cccc3n(CCC4CCN(S(=O)(=O)C(F)(F)F)CC4)c(=O)c1n23 [Compound 3, 1,2-dihydro-3-methyl-1-[2-(1-trifluoromethanesulfonylpiperidin-4-yl)ethan-1-yl]-1,4,7b-triazacyclopent[cd]inden-2-one hydrochloride], the inhibition at 0.3 µM ([2]; Dose 3 x 10^-7 M) was 39% and the inhibition at 1 µM [2] was 91.1%.
Work on CC(C)(C)OC(=O)N1CCC(CCn2c(=O)c3cnc4cccc2n43)CC1 [Example 2, 1,2-Dihydro-1-[2-(1-tert-butoxycarbonylpiperidin-4-yl)ethan-1-yl]-1,4,7b-triazacyclopent[cd]inden-2-one] yielded an inhibition at 3 µM [2] of 40.1%, an inhibition at 10 µM ([2]; Dose 10^-5 M) of 58.3% and an inhibition at 1 µM [2] of 11.1%.
O=c1c2cnc3cccc(n1CC1CCN(S(=O)(=O)C(F)(F)F)CC1)n32 [8(ii), 1,2-Dihydro-1-(1-trifluoromethanesulfonylpiperidin-4-ylmethyl)-1,4,7b-triazacyclopent[cd]inden-2-one] gave an inhibition at 1 µM [1] of 74.9%.
O=c1c2cnc3cccc(n1CCC1CCN(S(=O)(=O)C(F)(F)F)CC1)n32 [Example 9(ii), 1,2-dihydro-1-[2-(1-trifluoromethanesulfonylpiperidin-4-yl)ethan-1-yl]-1,4,7b-triazacyclopent[cd]inden-2-one] gave an inhibition at 0.3 µM [1] of 94.9%, a Urinary albumin (SHC rats; [3]) of 12.0 mg/day and a Urinary total protein (SHC rats; [3]) of 39.2 mg/day. It also gave a Urinary albumin (SHC rats; [4]) of 10.9 mg/day, a Urinary total protein (SHC rats; [4]) of 50.4 mg/day and a Urinary albumin (SHC rats; [5]) of 46.2 mg/day. It also gave a Urinary total protein (SHC rats; [5]) of 91.3 mg/day, a Urinary albumin (SHC rats; [6]) of 129.9 mg/day and a Urinary total protein (SHC rats; [6]) of 199.4 mg/day.
For O=C1c2cnc3cccc(n23)CN1CC1CCN(S(=O)(=O)C(F)(F)F)CC1 [11(iii), 4,5-Dihydro-4-(1-trifluoromethanesulfonylpiperidin-4-ylmethyl)-3H-1,4,8b-triazaacenaphthylen-3-one hydrochloride], the inhibition at 3 µM [1] was 59.2%.
Compound CC(C)(C)OC(=O)N1CCC(Cn2c(=O)c3cnc4cccc2n43)CC1 [Example 1, 1,2-Dihydro-1-(1-tert-butoxycarbonylpiperidin-4-ylmethyl)-1,4,7b-triazacyclopent[cd]inden-2-one] has an inhibition at 3 µM [2] of 39.4%.
With Cc1nc2cccc3n(CCCC4CCN(S(=O)(=O)C(F)(F)F)CC4)c(=O)c1n23 [Example 23, 1,2-Dihydro-3-methyl-1-[3-(1-trifluoromethanesulfonylpiperidin-4-yl)propan-1-yl]-1,4,7b-triazacyclopent[cd]inden-2-one] the inhibition at 0.3 µM [1] was 44.6%.
Work on Cc1ccc(S(=O)(=O)NC[C@H]2CC[C@H](Cn3c(=O)c4c(C)nc5cccc3n54)CC2)cc1 [Example 32, 1,2-Dihydro-3-methyl-1-[trans-4-(4-methylphenylsulfonylamino)methyl-1-cyclohexylmethyl]-1,4,7b-triazacyclopent[cd]inden-2-one] yielded an inhibition at 1 µM [1] of 80.3%.
Compound Cc1nc2cccc3n(CCC4CCN(C(=O)C(F)(F)C(F)(F)F)CC4)c(=O)c1n23 [Example 27, 1,2-Dihydro-3-methyl-1-[2-(1-pentafluoropropionylpiperidin-4-yl)ethan-1-yl]-1,4,7b-triazacyclopent[cd]inden-2-one] has an inhibition at 1 µM [1] of 62.7%.
Cc1nc2cccc3nc(SCCC4CCN(S(=O)(=O)C(F)(F)F)CC4)c1n23 [25(ii), 3-Methyl-2-[2-(1-trifluoromethanesulfonylpiperidin-4-yl)ethan-1-yl]thio-1,4,7b-triazacyclopent[cd]indene] was tested, and the inhibition at 0.3 µM [1] was 83.4%.
Compound O=C1c2cccc3ncc(n23)CN1CCC1CCN(S(=O)(=O)C(F)(F)F)CC1 [Example 19, 4,5-Dihydro-4-[2-(1-trifluoromethanesulfonylpiperidin-4-yl)ethan-1-yl]-3H-1,4,8b-triazaacenaphthylen-5-one] has an inhibition at 1 µM [1] of 72.8%.
With O=C1c2cnc3cccc(n23)CN1CCC1CCN(S(=O)(=O)C(F)(F)F)CC1 [12(ii), 4,5-Dihydro-4-[2-(1-trifluoromethanesulfonylpiperidin-4-yl)ethan-1-yl]-3H-1,4,8b-triazaacenaphthylen-3-one] the inhibition at 1 µM [1] was 96.6%.

From patent EP0826686A2, “Tricyclic compounds, their production and use” (TAKEDA CHEMICAL INDUSTRIES, LTD., priority 1996, dated 1998)
